Series [1] deals with T1, Chymotrypsinogen B (Homo sapiens, UniProt P17538). The series can be described thus: Binding constant alpha-chymotrypsin was determined by competitive inhibition assay with Suc-Ala-Ala-Pro-Phe-pNA as substrate.
Series [2] in a line: Catalytic rate constant of the compound. In kind it is ADME.
The nature of series [3]: Hydrolysis rate constant of the compound. In kind it is ADME.
Series [4] has as its target T1, Chymotrypsinogen B. As to the kind of experiment: Binding constant alpha-chymotrypsin was determined by competitive inhibition assay with BTEE as substrate.

By Ki is commonly meant the equilibrium dissociation constant of an inhibitor or competing ligand from its target.

T1 sequence (P17538 34-164 limits assumed, other chains not shown): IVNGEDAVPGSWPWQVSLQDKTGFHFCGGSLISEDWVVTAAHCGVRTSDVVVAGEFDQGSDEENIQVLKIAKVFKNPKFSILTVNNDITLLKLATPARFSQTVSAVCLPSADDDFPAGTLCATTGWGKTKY
T1 sequence (P17538 167-263 limits assumed, other chains not shown): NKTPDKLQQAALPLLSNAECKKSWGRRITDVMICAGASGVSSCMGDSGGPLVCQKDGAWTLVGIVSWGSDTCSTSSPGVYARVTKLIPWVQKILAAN

As for `O=C1CC(c2ccccc2)C/C(=C\I)O1` (stereo not drawn), the affinity at Chymotrypsinogen B [1] corresponds to a Ki of 0.0053 µM. Also, the Kc in series [2] stood at 0.025 min⁻¹. The Kh in series [3] was found to be 0.0068 min⁻¹.
On Chymotrypsinogen B [4], `O=C1CCC(c2ccccc2)/C(=C\I)O1` (stereo not drawn) gave a Ki of 55 µM. In series [3], the Kh came to 0.004 min⁻¹.
As to `O=C1C=C(c2ccccc2)/C(=C\I)O1`, the Kh in series [3] came to 0.0015 min⁻¹.
For the molecule `O=C1CC(c2ccccc2)/C(=C\I)O1` (stereo not drawn), the Kh in series [3] was 0.0021 min⁻¹.
On the same count and under the same terms, under `C=C1CC(c2ccccc2)CC(=O)O1` (stereo not drawn) stands 0.0015 min⁻¹.

These data come from ChEMBL document CHEMBL1123451, “Enol lactone inhibitors of serine proteases. The effect of regiochemistry on the inactivation behavior of phenyl-substituted (halomethylene)tetra- and -dihydrofuranones and (halomethylene)tetrahydropyranones toward alpha-chymotrypsin: stable acyl enzyme intermediate” (J Med Chem, 1986).
